Two sequences from publication PMC8704389, “New Insights into the Hypotensins from Tityus serrulatus Venom: Pro-Inflammatory and Vasopeptidases Modulation Activities” (Toxins, 2021) can be followed below.

Where “and” joins values, the source holds several entries; their conditions need not be identical. Identical values can stand only once. No end group written: not given here. Where only a bound is given, the exact number is not on record here.

In one series the target is T1, ACE (Oryctolagus cuniculus, UniProt P12822).
T1 construct: Angiotensin Converting Enzyme (ACE) from rabbit lung; purchased Sigma-Aldrich; host or cells: rabbit lung tissue
T1 sequence (P12822 34-1310): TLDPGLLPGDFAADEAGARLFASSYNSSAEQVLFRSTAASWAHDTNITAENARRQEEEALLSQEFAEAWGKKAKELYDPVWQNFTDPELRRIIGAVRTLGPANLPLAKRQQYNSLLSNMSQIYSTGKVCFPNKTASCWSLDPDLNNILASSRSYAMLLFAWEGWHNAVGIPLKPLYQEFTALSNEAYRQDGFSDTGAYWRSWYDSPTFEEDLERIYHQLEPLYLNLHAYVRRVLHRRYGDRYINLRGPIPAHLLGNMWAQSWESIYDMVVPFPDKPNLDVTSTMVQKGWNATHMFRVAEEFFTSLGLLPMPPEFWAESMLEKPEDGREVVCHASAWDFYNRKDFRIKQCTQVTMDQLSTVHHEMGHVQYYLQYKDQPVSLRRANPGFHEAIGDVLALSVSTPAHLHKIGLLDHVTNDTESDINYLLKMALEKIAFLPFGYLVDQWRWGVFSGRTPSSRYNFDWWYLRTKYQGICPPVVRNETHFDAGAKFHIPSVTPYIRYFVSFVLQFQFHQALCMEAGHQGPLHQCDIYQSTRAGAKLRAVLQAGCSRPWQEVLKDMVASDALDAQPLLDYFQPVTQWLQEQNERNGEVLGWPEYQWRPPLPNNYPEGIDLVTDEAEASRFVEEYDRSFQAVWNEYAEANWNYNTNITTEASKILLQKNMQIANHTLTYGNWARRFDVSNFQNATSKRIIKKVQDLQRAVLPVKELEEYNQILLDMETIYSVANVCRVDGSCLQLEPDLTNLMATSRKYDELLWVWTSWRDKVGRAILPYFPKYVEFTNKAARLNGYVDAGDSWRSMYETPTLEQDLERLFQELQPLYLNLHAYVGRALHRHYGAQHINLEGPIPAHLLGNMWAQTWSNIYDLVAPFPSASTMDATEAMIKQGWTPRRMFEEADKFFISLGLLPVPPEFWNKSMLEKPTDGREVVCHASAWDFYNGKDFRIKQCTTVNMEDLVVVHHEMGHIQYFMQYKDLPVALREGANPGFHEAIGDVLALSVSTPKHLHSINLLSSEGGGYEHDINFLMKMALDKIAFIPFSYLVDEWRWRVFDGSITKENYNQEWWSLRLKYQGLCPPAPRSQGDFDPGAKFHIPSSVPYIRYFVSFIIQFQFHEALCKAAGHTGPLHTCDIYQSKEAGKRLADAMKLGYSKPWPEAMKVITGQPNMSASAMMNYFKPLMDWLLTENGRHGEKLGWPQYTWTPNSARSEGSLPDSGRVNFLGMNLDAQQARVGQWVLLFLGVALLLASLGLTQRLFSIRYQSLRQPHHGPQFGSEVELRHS
In words: Modulation of ACE activity, FRET substrate Abz-FRK(Dnp)P-OH. In kind it is biochemical, rabbit. As to conditions: 10 µM peptide, 3.0 ng ACE, 10 µM Abz-FRK(Dnp)P-OH, Tris HCl 100 mM, NaCl 50 mM, ZnCl2 10 µM, pH 7.0, 37 °C, 15 min, fluorescence 320/420 nm, triplicate. The procedure: The results were obtained by incubating the enzymes with their FRET substrates (10 µM) in a final volume of 100 µL. For the ACE assays, the used buffer was Tris HCl 100 mM, NaCl 50 mM and ZnCl2 10 µM, pH 7.0. For NEP, the assays were made in Tris HCl 50 mM, pH 7.5 buffer. All reactions occurred at 37 °C, in a Victor 3 fluorimeter (Perkin–Elmer) adjusted for excitation and emission readings at 320 and 420 nm, respectively, for 15 min (one reader per minute). Results were obtained in triplicate and analyzed on GraFit 5 software.
For ACE assays, 10 µM of each peptide was incubated with 3.0 ng of peptidase and 10 µM of Abz-FRK (Dnp) P-OH substrate, in Tris HCl 100 mM, NaCl 50 mM and ZnCl2 10 µM, pH 7.0 buffer. For NEP, 10 µM of TsHpt-I or -II was incubated with 1.5 ng of peptidase, 3.5 µM Abz-RGFK (Dnp)-OH in Tris HCl 50 mM, pH 7.5 buffer. All reactions occurred at 37 °C, in a final volume of 100 µL, in a Victor 3 fluorimeter (Perkin–Elmer, Waltham, MA, USA) adjusted for excitation and emission readings at 320 and 420 nm, respectively, for 15 min (one reader per minute). Results were obtained in triplicate and analyzed using GraFit 5 (Erithacus software, East Grinstead, West Sussex, UK).

Another series has as its system NEP. In words: in vitro. As to conditions: human, isolated enzyme neprilysin; 30 µM peptide, NEP 1.5 ng, Tris HCl 50 mM, pH 7.5, 4 h, 37 °C, RP-HPLC C18, UV 214 nm; read-out: hydrolysis products after incubation with NEP. In kind it is in vitro ADME. How it is done: Figure 1 Analysis of the susceptibility to hydrolysis of the hypotensins over the vasopeptidases NEP and ACE. Incubations were carried out in Tris HCl 100 mM, NaCl 50 mM and ZnCl2 10 µM, pH 7.0, for the ACE assays, and, for the NEP assays, in Tris HCl 50 mM, pH 7.5 buffer, for four hours at 37 °C. (A) TsHpt-I control (black line) and after incubation with NEP (red line). (B) TsHpt-II control (black line) and TsHpt-II incubated with NEP (red line). (C) TsHpt-I control (black line) and incubated with ACE (red line). (D) TsHpt-II control (black line) and after incubation with ACE (red line). The samples of negative and experimental controls (A) TsHpt-I and (B) TsHpt-II are shown on the left and right, respectively. The hydrolysis products were considered ≤5%. The gradient used was 20% to 60% solvent B in 20 min, and 60% to 100% solvent B in 5 min (flow 1 mL/min, absorbance at 214 nm). Restek Ultra C-18 5 µm column, 250 × 4.6 mm.
The synthetic peptides TsHpt-I and TsHpt-II (30 µM) were incubated with ACE (3.0 ng), in Tris HCl 100 mM, NaCl 50 mM and ZnCl2 10 µM, pH 7.0 buffer, and NEP (1.5 ng), in Tris HCl 50 mM, pH 7.5 buffer, at 37 °C for 4 h. Samples containing only the synthetic peptides were used as the negative control. After incubation, samples were analyzed by reverse phase chromatography on RP-HPLC (Shimadzu, Kyoto, Japan), using a Restek Ultra C-18 column (5 µm, 250 × 4.6 mm). […]

In the case of AEIDFSGIPEDIIKEIKETNAKPPA [TsHpt-II], the “ACE Activation (%)” value on ACE is 46% and 44%. In addition, the metabolised at 4 h, 30 µM in the series with NEP was at most 5%.
As to AEIDFSGIPEDIIKQIKETNAKPPA [TsHpt-I], the “ACE Activation (%)” value at ACE came to 64%. Moreover, the metabolised at 4 h, 30 µM with NEP is at most 5%.
